Test results from US7098306B2, “Method and compositions for treating hepatocellular cancer” (The Regents of the University of California, priority 1997, dated 2006).

Experiments:
[1] = tested on: AdVhAFP/DC immunized murine splenocytes; assay: IFNg ELISPOT restimulation of AdVhAFP/DC immunized murine splenocytes with HPLC fractions eluted from HepG2 or Hep3B; format: cell-based; details: HPLC fractions from Hep3B elution
Protocol: To elute peptides, HepG2 and Hep3B cells were washed three times with PBS before being incubated with 5 ml of citrate-phosphate buffer at pH 3.2 for 1 minute. The suspension was centrifuged (800×g for 5 minutes) and a total of 500 ml of cell-free supernatant was collected for each cell line. The materials were lyophilized to dryness and stored at −20° C.
Lyophilized materials were redissolved in 30 ml of water/acetonitrile/triflouroacetic acid (W/A/TFA, 95/5/0.1 all by vol.). This solution was pumped onto an analytical reverse phase HPLC column (Keystone Scientific C18 Betasil, 250 mm×2 mm, […] particle size, 100 Å pore size) equilibrated in W/A/TFA, at a flow rate of 0.2 ml/min. The column was eluted using an increasing linear gradient of 0.1% TFA in acetonitrile (time/%acetonitrile=0/5, 5/5, 55/100, 60/100). Column eluate absorbance was monitored at 215 and 280 nm and 1 minute fractions were collected. The retention times of the synthetic peptides with amino acid sequences corresponding to the immunostimulatory peptides were obtained using the same separation gradient on a separate column.
To confirm the presence of dominant peptides in these fractions immunologically, […] of each HPLC fraction from either HepG2 or Hep3B cells was used to restimulate AdVhAFP/DC immunized murine splenocytes in an ELISPOT assay. 200–250 spots/10^6 cells were observed from fractions containing dominant peptides, where 100–130 spots/10^6 cells were observed from the other fractions, and a maximum of 50 spots/10^6 cells were observed from Hep3B fractions. This further supports the mass spectrometry identification of the dominant peptides.

[2] = tested on: AFP positive/A2.1+ hepatocellular carcinoma; assay: immunization of hepatocellular carcinoma patients with the four peptides in Montanide ISA-51, peripheral T cell responses by ELISPOT and tetramer; format: in vivo, human; details: for in vivo T cell responses: patient AFP-A1, 100 μg each peptide, after the second and third immunization; for T cell responses by tetramer and ELISPOT: patient AFP-A2, following two immunizations
Protocol: The method and compositions of the present invention were used to treat several patients with AFP positive/A2.1+ hepatocellular carcinoma. Each of the patients were immunized with the four peptides hAFP137-145, residues 137–145 of SEQ ID NO:2; hAFP158-166, residues 158–166 of SEQ ID NO:2; hAFP325-334, residues 325–334 of SEQ ID NO:2; and hAFP542-550, residues 542–550 of SEQ ID NO:2, according to the this method. The peptides were emulsified in 0.5 ml of Montanide™ ISA-51 and combined for a total of 2 ml. The emulsified peptides were divided into four equal doses and each dose was administered in a separate site. Peripheral T cell responses are measured by ELISPOT and tetramer assays.
(§1) They were administered three immunizations of 100 μg each of the four peptides in Montanide™ ISA at two week intervals. Parallel in vitro PBMC cultures were also established from the first patient's blood before immunization and repetitively pulsed with each peptide. […] The presence of AFP542-specific T cells could not be assessed by tetramer as an AFP542 peptide tetramer could not be folded by the facility where these reagents are prepared.
The second patient, designated AFP-A2 was a person with a history of ethanol-induced liver cirrhosis, who was negative for both Hepatitis B and C. […] Their AFP level at presentation was 10,400 ng/ml. […] Seven months after presentation, they were then begun on a combination of the four peptides hAFP137-145, residues 137–145 of SEQ ID NO:2; hAFP158-166, residues 158–166 of SEQ ID NO:2; hAFP325-334, residues 325–334 of SEQ ID NO:2; and hAFP542-550, residues 542–550 of SEQ ID NO:2 using the protocol according to the present invention. They received two immunizations two weeks apart.

PBMC cultures = assay: parallel in vitro PBMC cultures of patient AFP-A1 repetitively pulsed with each peptide; format: cell-based, human; details: patient AFP-A1, day 28 cultures
Protocol: as §1

Sequence | Immunologically Reactive Fractions (IFNg ELISPOT) Hep3B [1] | in vivo T cell responses [2] | T cell responses by tetramer and ELISPOT [2] | in vitro recognition by tetramer (PBMC cultures)
FMNKFIYEI (listed as Homo sapiens) [hAFP158-166, dominant HLA-A*0201 peptide derived from human alpha fetoprotein] | 0 | clear recognition | T cell responses were detected | 
GLSPNLNRFL (listed as Homo sapiens) [hAFP325-334, dominant HLA-A*0201 peptide derived from human alpha fetoprotein] | 0 | trend towards recognition | T cell responses were detected | clear in vitro recognition
GVALQTMKQ (listed as Homo sapiens) [hAFP542-550, dominant HLA-A*0201 peptide derived from human alpha fetoprotein] | 0 | clear recognition | T cell responses were detected | 
PLFQVPEPV (listed as Homo sapiens) [hAFP137-145, dominant HLA-A*0201 peptide derived from human alpha fetoprotein] | 0 | clear recognition | T cell responses were detected | clear in vitro recognition
